Experimental data reported in BigSolDB 2.1.

CC1=NN(c2ccccc2)C(=O)C1
solubility (mole fraction)
Conditions | 273.15 K | 278.15 K | 283.15 K | 288.15 K | 293.15 K | 298.15 K | 303.15 K | 308.15 K | 313.15 K
in acetonitrile | 0.00554 | 0.00717 | 0.0092 | 0.0116 | 0.0144 | 0.018 | 0.0218 | 0.0265 | 0.0314
in ethanol | 0.0172 | 0.0197 | 0.0226 | 0.0253 | 0.0285 | 0.0321 | 0.0358 | 0.0397 | 0.0445
in ethyl acetate | 0.0152 | 0.0173 | 0.0196 | 0.0223 | 0.0253 | 0.0284 | 0.0323 | 0.0368 | 0.0419
in methanol | 0.0108 | 0.013 | 0.0153 | 0.0179 | 0.0208 | 0.0238 | 0.0274 | 0.0312 | 0.0354
in n-propanol | 0.0199 | 0.0222 | 0.0249 | 0.028 | 0.0317 | 0.0353 | 0.0393 | 0.0433 | 0.0472
